This is an account of results in US7307166B1, “Oxpurine nucleosides and their congeners, and acyl, derivatives thereof, for improvement of hematopoiesis” (Wellstat Therapeutics Corporation, priority 1987, dated 2007).

The subject of one test is TNF-alpha. Kind of test: LPS-induced serum TNF-alpha (ELISA). The class given is in vivo, mouse. As to the method: (§1) Sixty-three female Balb/C mice were randomly assigned to one of three groups. The animals in one group received a single daily dose of N^2,3′,5′-tripalmitoyldeoxyguanosine (PdG) (25 mg/kg, i.p.), while a second group received a single daily dose of the PdG treatment vehicle (control). The third group was left untreated. On the fourth day 100 μg salmonella typhimurium LPS was administered to all three groups. Serum samples were taken just prior to LPS administration (t=0) and at two, four, six, eight, ten, twelve, sixteen, and twenty hours after LPS administration. The samples were then frozen until the time of assay. Serum levels of TNF-alpha, and IFN-gamma were measured by ELISA.
(§2) In the tables below, units for cytokine concentrations are picograms per ml. A value of 0 indicates cytokine levels below the detection limit of the assay (50 to 100 pg/ml).

In a further test the test system is FDCPmix cells. The test can be described thus: FDCPmix cell proliferation in the presence of IL-3 (MTT assay). The class given is cell-based. As to the method:
The FDCPmix cell line was used as a suitable in vitro model for predicting the effects of hematopoietic factors on pluripotential stem cells. These cells can be maintained in an undifferentiated state in the presence of IL-3 or undergo multi-lineage development in the presence of specific hematopoietic growth factors.
This level of proliferation (100%) served as the control value. Inhibition of proliferation by test compounds was represented as a percent of control.
FDCPmix cells were plated at a density of 5×10^4 cells per well in 96-well plates (5×10^5/ml) using IMDM medium plus 10% fetal bovine serum. […] Test compounds were added at a decreasing concentrations ranging from 10 micrograms/ml down to 1 nanogram/ml. The test compounds included: 3′,5′-O—N^2-tripalmitoyl-2′-deoxyguanosine, 3′,5′-di-O-palmitoyl-2′-deoxy-guanosine, 3′,5′-O—N^2-trioctanoyl-2′-deoxyguanosine, 3′,5′-di-O-octanoyl-2′-deoxyguanosine, and 3′,5′-o-N^2-trioleyl-2′-deoxy-guanosine.

In test [1] the test system is IL-3-dependent bone marrow cells. Kind of test: Apoptosis of IL-3-dependent bone marrow cells deprived of IL-3 (trypan blue exclusion). It is filed as cell-based, mouse. The settings on record: 10 micrograms per milliliter.
Experimental: Bone marrow cells were obtained by flushing the femurs of three male B6D2F1 mice. The cells were plated at 5.0×10^5/ml in MEM plus 10% fetal calf serum and 25 Units/ml of recombinant IL-3 for 24-48 hours. Non-adherent cells were then separated from adherent cells and maintained for an additional twelve days. IL-3 washed from cells, and cells were plated in MEM plus 10% fetal calf serum in the presence or absence of IL-3 and with or without the addition of palmitoyldeoxyguanosine (10 micrograms per milliliter) or deoxyguanosine (10 micrograms per milliliter). Cells were counted using the trypan blue exclusion method, and the percent of dead cells (trypan blue positive) was determined at 24, 40, 60 and 84 hours following the wash.
The next test relates to male CDF8F1 mice. The test can be described thus: Doxorubicin-induced myelosuppression. It is filed as in vivo, mouse. As for the experimental part:
Doxorubicin (Adriamycin) is a widely-used anticancer agent effective against breast carcinoma, sarcomas, small-cell lung cancer, ovarian cancer, thyroid cancer, Hodgkin's Disease and non-Hodgkins lymphoma. Its clinical application is limited by its cardiac and hematologic toxicities. A study was conducted to assess the effect of N^2 3′,5′-tripalmitoyldeoxyguanosine (PdG) in reducing the hematologic toxicity of doxorubicin. Eighty male CDF8F1 mice were divided into three groups. One group received no treatment and served as basal control animals. Animals in the other two groups were each given a single dose of doxorubicin at a dose of 11 mg/kg by intraperitoneal injection. Beginning 24 hours later, animals in the two groups received three daily doses by intraperitoneal injection of either PdG or vehicle only. Blood samples were obtained by retro-orbital eye bleed just prior to administration of doxorubicin and then 4, 8, 11 and 14 days thereafter. Complete blood cell counts with differential were determined.

For the next test, the system named is hematopoietic stem cells. The test can be described thus: Stem cell mobilization. It is filed as in vivo, mouse.
For a further test, the system named is female Balb/C mice. The test can be described thus: Survival after bacterial endotoxin (salmonella typhimurium LPS). The settings on record: 21-day observation; LPS 100 μg (5 mg/kg); 25 mg/kg i.p. daily 3 days prior. The class given is in vivo, mouse. As to the method: In an experiment to test the effect of N^2,3′,5′-tripalmitoyldeoxyguanosine (PdG) on animals challenged by endotoxin, 42 female Balb/C mice were divided into three groups of 14 animals each. Each group was given a single 100 μg dose (5 mg/kg) of salmonella typhimurium LPS. Two of the groups were treated once per day for three days prior to receiving the LPS by intraperitoneal injection with either 25 mg/kg PdG or with vehicle alone. The third group received no pretreatment. Survival of the animals was monitored for 21 days subsequent to the LPS dose.

A further test concerns IFN-gamma. Kind of test: LPS-induced serum interferon-gamma (ELISA). The class given is in vivo, mouse. As for the experimental part:
as §1, §2

The subject of another test is interleukin-1-alpha. Kind of test: LPS-induced elevation of serum interleukin-1-alpha. The settings on record: PdG 25 mg/kg i.p. The class given is in vivo, mouse. As for the experimental part:
as §1
PdG also attenuated LPS-induced elevation of serum interleukin-1-alpha and interleukin-6.

Test [2] deals with Normal Balb/C female mice. The test can be described thus: Hematopoiesis in normal mice. It is filed as in vivo, mouse. As for the experimental part: Normal, otherwise untreated, female Balb/C mice weighing approximately 20 grams each received a total of 4 or 9 0.4 ml intraperitoneal injections (one per day) of either Tween-80 (0.2%) (controls), palmitoylguanosine ([…]), or palmitoyldeoxyinosine ([…]). Twenty-four hours after the 4th or 9th treatment, groups of 5 or 6 animals from each of the 3 groups were bled and then sacrificed by cervical dislocation. Spleens were removed and weighed, and complete blood cell counts performed.
Normal Balb/C female mice weighing approximately 20 grams each were given a daily 0.4 ml i.p. injection of either physiological saline (controls), palmitoylguanosine (2.6 μmoles/mouse), palmitoyldeoxyguanosine (2.6 μmoles/mouse), monopalmitoylguanosine 2′,3′-acyclic dialcohol (2.6 μmoles/mouse), and palmitoyl-8-bromoguanosine (2.6 μmoles/mouse) for 4 days. On the fifth day all 3 animals in each of the 5 groups were bled and then sacrificed by cervical dislocation. Spleens were removed and weighed, and complete blood cell counts performed. Femoral bone marrow from each mouse was collected and a differential cell count performed on marrow smears.

Setting [3] is: 0 hr after LPS 100 μg, PdG 25 mg/kg i.p. daily before, 0 = below detection limit.
The mark [4] stands for this setting: Day 4 after doxorubicin 11 mg/kg.
Setting [5] is: Day 8 after doxorubicin 11 mg/kg.
Where [6] appears, read: Day 14 after doxorubicin 11 mg/kg.

For the compound `CCCCCCCCCCCCCCCC(=O)Nc1nc2c(ncn2[C@H]2C[C@H](OC(=O)CCCCCCCCCCCCCCC)[C@@H](COC(=O)CCCCCCCCCCCCCCC)O2)c(=O)[nH]1` [PdG, 3′,5′-O-N^2-tripalmitoyl-2′-deoxyguanosine], the “serum TNF-alpha” value in the test with TNF-alpha (setting [3]) is listed as 0 picograms per ml; in the test with TNF-alpha (2 hr after LPS), 1509 ± 86 picograms per ml; with TNF-alpha (4 hr after LPS), 529 ± 141 picograms per ml; with TNF-alpha (6 hr after LPS), 486 ± 63 picograms per ml. The “Peak TNF-alpha levels vs control groups” value in the test on TNF-alpha (PdG 25 mg/kg i.p.) was “four-fold lower”. For the same compound, the “Cell proliferation (% of Control)” value in the test on FDCPmix cells (Dose 10 ng) is 78 ± 1 % of Control; with FDCPmix cells (Dose 39 ng), 76 ± 2 % of Control; in the test with FDCPmix cells (Dose 156 ng), 72 ± 3 % of Control; in the test with FDCPmix cells (Dose 625 ng), 60 ± 2 % of Control; in the test on FDCPmix cells (Dose 2.5 μg), 51 ± .7 % of Control; with FDCPmix cells (Dose 10 μg, 48 hours, IL-3 25 units/ml), 51 ± .6 % of Control. Besides, the “% Dead Cells” value in test [1] (40 hr after IL-3 wash) is given as 18.0 ± 3.0 %; in test [1] (60 hr after IL-3 wash), 16.0 ± 1.5 %; in [1] (84 hr after IL-3 wash), 15.3 ± 5.5 %. The values for the Lymphocytes in the test on male CDF8F1 mice (setting [4]), in the test on male CDF8F1 mice (setting [5]) and in the test with male CDF8F1 mice (setting [6]) were 8.07 ± 1.21 K/μL, 1.63 ± 0.13 K/μL and 2.0 ± 0.15 K/μL, respectively. Besides, the results for the Neutrophils with male CDF8F1 mice (setting [4]), with male CDF8F1 mice (setting [5]) and in the test with male CDF8F1 mice (setting [6]) were 4.35 ± 0.73 K/μL, 2.47 ± 0.28 K/μL and 2.3 ± 0.26 K/μL, respectively. The WBC in the test with male CDF8F1 mice (Day 4 after doxorubicin 11 mg/kg i.p., PdG 3 daily i.p. doses from 24 h after) was 13.2 ± 1.59 K/μL; with male CDF8F1 mice (setting [5]) it was 4.57 ± 0.35 K/μL; in the test with male CDF8F1 mice (Day 11 after doxorubicin 11 mg/kg), 3.95 ± 0.42 K/μL; in the test with male CDF8F1 mice (setting [6]), 5.0 ± 0.39 K/μL. Moreover, in the test on hematopoietic stem cells (PdG alone 25 mg/kg), the “mobilization of stem cells” value is on record as “can induce the mobilization”. Also, the “response to cyclophosphamide (stem cell mobilization) with PdG” value in the test on hematopoietic stem cells (PdG with cyclophosphamide) was “seven to eight-fold greater”. Besides, the “mobilizing stem cells in intact and splenectomized mice” value in the test on hematopoietic stem cells (with and without cyclophosphamide co-treatment) is listed as “equally effective”. Also, the survival result in the test on female Balb/C mice is recorded as “All”. Also, the serum interferon-gamma in the test on IFN-gamma (setting [3]) is 0 picograms per ml; in the test on IFN-gamma (2 hr after LPS, 0 = below detection limit) it was 0 picograms per ml; with IFN-gamma (4 hr after LPS), 825 ± 248 picograms per ml; in the test with IFN-gamma (8 hr after LPS), 2129 ± 454 picograms per ml; in the test with IFN-gamma (10 hr after LPS), 911 ± 279 picograms per ml; in the test on IFN-gamma (12 hr after LPS, 0 = below detection limit), 0 picograms per ml. Moreover, the serum interferon-gamma in the test on IFN-gamma (16 hr after LPS, 0 = below detection limit) is on record as 0 picograms per ml; in the test with IFN-gamma (20 hr after LPS, 0 = below detection limit), 0 picograms per ml. Besides, in the test on IFN-gamma (PdG 25 mg/kg i.p.), the “area under the curve (AUC) over the entire time course” value is “significantly lower”. For the same compound, the “peak IFN-gamma levels vs control values” in the test on IFN-gamma (PdG 25 mg/kg i.p.) is “five- to seven-fold lower”. In addition, in the test on interleukin-1-alpha, the “LPS-induced elevation of serum interleukin-1-alpha” value is on record as “attenuated”.
For the compound `CCCCCCCCCCCCCCCC(=O)OC[C@H]1O[C@@H](n2cnc3c(=O)[nH]c(N)nc32)[C@H](O)[C@@H]1O`, the spleen weights entry in test [2] (Ex 44: day 5, 2.5 Moles/mouse/day i.p., 4 injections) is given as “significantly greater”. In test [2] (Ex 44: day 10, 9 injections), the total leukocyte counts result was “significantly elevated”. The spleen weight entry in test [2] (Ex 56: fifth day, 2.6 μmoles/mouse i.p. daily 4 days) is reported as “significantly elevated”.
